Data taken from patent US11241453B2, “Arsenic compositions” (Eupharma Pty Ltd, priority 2016, dated 2022).
Values joined by “and” are separate entries in the source; they are usually repeats but may differ in a detail not shown here. Equal entries are not always repeated. Where two headings read alike, the source gives them in different places.

How the values were obtained:
[1] = cited from earlier work
[2] = cited from earlier work; remark: listed apart in the source
[3] = Dissolution in near neutral solution at pH 6.5; assay type: physicochemical; details: for Time until capsule opens: pH 6.5, 150 mls, 37° C., stirred
Experimental: Dissolution experiments were carried out on NaHAs2O4 at 2 different pH levels. Firstly, simulated gastric fluid (pH 1.24) was used, then a near neutral solution at pH 6.5. Prior to addition of the capsules, 150 mls of the dissolution solution was heated to 37° C. and the solution contained a spin bar at a speed of 2. The appropriate capsule was then added.

[4] = assay type: physicochemical
[5] = gelatin capsule in 150 mL simulated gastric solution, approx. pH 1.2, 37° C.

Row | Substance | Time required for complete dissolution ([1]; 0.1 M NaOH) [min] | Dissolution (in words) ([1]; in vitro, strong stirring, low pH) | Solubility (in words) ([2]; neutral pH) | Solubility in water (in words) ([2]; physiological or acidic pH) | Time until capsule opens ([3]; 1 mg capsule) | Time until capsule opens ([3]; 10 mg capsule) | Time until powder was completely dissolved ([3]; near neutral solution pH 6.5, 37° C.) | Time to dissolve ([3]; pH 7) | Time until capsule opens ([4]; 10 mg capsule, pH 1.24, 150 mls, 37° C., stirred) | Time to complete dissolution in gastric juices [4] | Time to complete dissolution in gastric juices ([4]; 'even less than') | Time until capsule shell had dissolved [4, 5] | Time until contents had completely dissolved [4, 5] [min] | Time to dissolve ([4]; pH about 1) | Time until powder was completely dissolved ([4]; simulated gastric fluid pH 1.24, 37° C.) | Dissolution in stomach acid (in words) ([4]; stomach acid)
1 | arsenic trioxide | 15 to 20 | very slow process | only slightly soluble | only sparingly soluble | – | – | – | – | – | – | – | – | – | – | – | –
2 | sodium diarsenic tetraoxide [NaHAs2O4] | – | – | – | – | 50 s and 45 s | 55 s and 50 s | less than two minutes | well under a minute | 35 s and 40 s | less than 1 min | less than 30 seconds | less than or about one minute | ≤ 2 | less than 10 seconds | less than two minutes | very rapidly dissolved in stomach acid without any precipitation
